Assay results reported in PMC3961306, “Comparison of the Cancer Gene Targeting and Biochemical Selectivities of All Targeted Kinase Inhibitors Approved for Clinical Use” (PLoS ONE, 2014).
Where two headings read alike, the source gives them in different places.

What was measured:
Assay in all cases: Kinase profiling in a biochemical assay panel (mobility shift assays and ELISA), %-inhibition at 1 μM; selectivity entropy
[1] = target: panel of more than 300 wild-type and mutant kinases (313 kinase panel) (Homo sapiens, UniProt O75116)
[2] = target: panel of more than 300 wild-type and mutant kinases (313 kinase panel) (Homo sapiens, UniProt P36894)
[3] = target: panel of more than 300 wild-type and mutant kinases (313 kinase panel) (Homo sapiens, UniProt P57059)
[4] = target: panel of more than 300 wild-type and mutant kinases (313 kinase panel) (Homo sapiens, UniProt P80192)
Chain of panel of more than 300 wild-type and mutant kinases (313 kinase panel) (Homo sapiens, UniProt P80192) (P80192 whole entry, change not shown): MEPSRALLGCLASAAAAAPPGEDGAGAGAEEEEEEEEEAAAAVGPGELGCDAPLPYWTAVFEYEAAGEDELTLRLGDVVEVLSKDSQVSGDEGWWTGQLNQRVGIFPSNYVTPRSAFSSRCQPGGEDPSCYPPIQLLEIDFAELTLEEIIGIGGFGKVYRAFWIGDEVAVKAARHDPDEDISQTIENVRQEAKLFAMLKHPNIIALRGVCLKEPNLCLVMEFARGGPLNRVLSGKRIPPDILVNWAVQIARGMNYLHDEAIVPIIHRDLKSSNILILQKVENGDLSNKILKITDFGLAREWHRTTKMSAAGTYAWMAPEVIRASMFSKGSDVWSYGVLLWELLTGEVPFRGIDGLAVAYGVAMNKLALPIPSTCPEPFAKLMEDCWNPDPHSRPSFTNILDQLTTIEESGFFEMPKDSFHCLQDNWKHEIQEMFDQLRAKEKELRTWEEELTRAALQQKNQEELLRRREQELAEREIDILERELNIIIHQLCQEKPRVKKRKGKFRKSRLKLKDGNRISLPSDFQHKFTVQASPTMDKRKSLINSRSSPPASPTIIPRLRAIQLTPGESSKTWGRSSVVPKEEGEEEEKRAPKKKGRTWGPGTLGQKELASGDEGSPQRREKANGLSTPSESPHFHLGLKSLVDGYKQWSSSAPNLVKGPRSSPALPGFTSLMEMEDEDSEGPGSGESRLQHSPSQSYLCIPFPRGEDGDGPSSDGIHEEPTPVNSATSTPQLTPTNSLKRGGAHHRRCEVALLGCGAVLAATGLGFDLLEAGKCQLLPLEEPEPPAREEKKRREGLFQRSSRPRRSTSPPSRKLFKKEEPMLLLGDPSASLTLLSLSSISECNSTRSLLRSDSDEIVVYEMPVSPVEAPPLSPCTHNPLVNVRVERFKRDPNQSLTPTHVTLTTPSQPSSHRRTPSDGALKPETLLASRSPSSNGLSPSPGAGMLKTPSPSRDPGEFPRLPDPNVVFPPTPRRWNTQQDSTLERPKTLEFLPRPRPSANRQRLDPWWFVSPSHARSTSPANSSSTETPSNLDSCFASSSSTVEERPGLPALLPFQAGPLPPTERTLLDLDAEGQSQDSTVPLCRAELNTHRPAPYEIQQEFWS

[5] = target: panel of more than 300 wild-type and mutant kinases (313 kinase panel) (Homo sapiens, UniProt Q14012)
[6] = target: panel of more than 300 wild-type and mutant kinases (313 kinase panel) (Homo sapiens, UniProt Q16654)
[7] = target: T1, panel of more than 300 wild-type and mutant kinases (313 kinase panel) (Homo sapiens, UniProt Q8NE63)
T1 sequence (Q8NE63 1-616): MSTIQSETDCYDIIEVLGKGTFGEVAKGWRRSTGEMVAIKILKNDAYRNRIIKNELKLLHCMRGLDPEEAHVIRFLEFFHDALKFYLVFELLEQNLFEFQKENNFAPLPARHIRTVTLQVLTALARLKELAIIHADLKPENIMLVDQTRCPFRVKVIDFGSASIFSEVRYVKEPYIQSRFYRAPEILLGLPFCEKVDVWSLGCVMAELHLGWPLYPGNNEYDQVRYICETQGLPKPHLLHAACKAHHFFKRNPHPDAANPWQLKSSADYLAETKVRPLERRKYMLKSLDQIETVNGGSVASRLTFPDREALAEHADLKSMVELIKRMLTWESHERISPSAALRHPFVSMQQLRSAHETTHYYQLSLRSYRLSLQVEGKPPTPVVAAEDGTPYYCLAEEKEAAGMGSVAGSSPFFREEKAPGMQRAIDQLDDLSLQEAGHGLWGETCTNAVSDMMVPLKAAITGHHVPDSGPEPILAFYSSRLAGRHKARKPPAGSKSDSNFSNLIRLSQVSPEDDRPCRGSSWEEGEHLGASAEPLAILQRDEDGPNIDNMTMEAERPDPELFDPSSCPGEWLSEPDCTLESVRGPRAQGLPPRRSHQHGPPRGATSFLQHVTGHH

[8] = target: T2, panel of more than 300 wild-type and mutant kinases (313 kinase panel) (Homo sapiens, UniProt Q96PY6)
T2 sequence (Q96PY6 1-1258): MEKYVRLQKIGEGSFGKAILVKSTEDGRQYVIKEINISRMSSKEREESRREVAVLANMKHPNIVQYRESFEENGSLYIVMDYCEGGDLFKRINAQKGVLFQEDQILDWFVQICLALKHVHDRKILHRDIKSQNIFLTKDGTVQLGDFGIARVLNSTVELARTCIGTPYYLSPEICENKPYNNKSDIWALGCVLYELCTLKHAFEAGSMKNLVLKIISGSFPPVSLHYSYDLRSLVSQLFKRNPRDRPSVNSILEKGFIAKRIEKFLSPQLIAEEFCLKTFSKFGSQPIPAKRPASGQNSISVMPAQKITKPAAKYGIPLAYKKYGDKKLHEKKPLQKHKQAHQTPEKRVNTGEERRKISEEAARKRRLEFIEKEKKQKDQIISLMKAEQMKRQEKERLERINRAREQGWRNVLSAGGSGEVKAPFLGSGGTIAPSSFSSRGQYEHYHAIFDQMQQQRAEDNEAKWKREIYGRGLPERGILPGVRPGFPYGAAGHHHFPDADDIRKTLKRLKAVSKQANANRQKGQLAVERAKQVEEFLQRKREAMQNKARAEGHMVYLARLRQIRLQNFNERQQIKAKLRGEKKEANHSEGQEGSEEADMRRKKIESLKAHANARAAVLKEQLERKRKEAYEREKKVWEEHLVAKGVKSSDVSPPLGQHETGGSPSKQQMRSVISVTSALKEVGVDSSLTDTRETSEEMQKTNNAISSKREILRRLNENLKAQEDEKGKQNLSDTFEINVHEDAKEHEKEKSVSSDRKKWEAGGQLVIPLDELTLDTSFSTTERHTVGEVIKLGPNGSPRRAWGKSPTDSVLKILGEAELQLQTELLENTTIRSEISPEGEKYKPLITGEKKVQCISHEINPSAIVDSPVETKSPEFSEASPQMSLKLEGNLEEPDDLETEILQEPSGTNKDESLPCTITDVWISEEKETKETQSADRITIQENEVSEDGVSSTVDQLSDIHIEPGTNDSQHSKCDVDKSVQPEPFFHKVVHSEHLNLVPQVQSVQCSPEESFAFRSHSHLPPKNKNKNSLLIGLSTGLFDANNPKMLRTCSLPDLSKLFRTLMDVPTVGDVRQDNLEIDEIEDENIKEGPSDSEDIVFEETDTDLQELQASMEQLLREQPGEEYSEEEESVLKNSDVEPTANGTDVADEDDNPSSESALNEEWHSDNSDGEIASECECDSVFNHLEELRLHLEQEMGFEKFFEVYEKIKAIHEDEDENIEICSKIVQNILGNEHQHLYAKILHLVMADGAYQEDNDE

[9] = target: panel of more than 300 wild-type and mutant kinases (313 kinase panel) (Homo sapiens, UniProt P06213)
Chain of panel of more than 300 wild-type and mutant kinases (313 kinase panel) (Homo sapiens, UniProt P06213) (P06213 28-1382, change not shown): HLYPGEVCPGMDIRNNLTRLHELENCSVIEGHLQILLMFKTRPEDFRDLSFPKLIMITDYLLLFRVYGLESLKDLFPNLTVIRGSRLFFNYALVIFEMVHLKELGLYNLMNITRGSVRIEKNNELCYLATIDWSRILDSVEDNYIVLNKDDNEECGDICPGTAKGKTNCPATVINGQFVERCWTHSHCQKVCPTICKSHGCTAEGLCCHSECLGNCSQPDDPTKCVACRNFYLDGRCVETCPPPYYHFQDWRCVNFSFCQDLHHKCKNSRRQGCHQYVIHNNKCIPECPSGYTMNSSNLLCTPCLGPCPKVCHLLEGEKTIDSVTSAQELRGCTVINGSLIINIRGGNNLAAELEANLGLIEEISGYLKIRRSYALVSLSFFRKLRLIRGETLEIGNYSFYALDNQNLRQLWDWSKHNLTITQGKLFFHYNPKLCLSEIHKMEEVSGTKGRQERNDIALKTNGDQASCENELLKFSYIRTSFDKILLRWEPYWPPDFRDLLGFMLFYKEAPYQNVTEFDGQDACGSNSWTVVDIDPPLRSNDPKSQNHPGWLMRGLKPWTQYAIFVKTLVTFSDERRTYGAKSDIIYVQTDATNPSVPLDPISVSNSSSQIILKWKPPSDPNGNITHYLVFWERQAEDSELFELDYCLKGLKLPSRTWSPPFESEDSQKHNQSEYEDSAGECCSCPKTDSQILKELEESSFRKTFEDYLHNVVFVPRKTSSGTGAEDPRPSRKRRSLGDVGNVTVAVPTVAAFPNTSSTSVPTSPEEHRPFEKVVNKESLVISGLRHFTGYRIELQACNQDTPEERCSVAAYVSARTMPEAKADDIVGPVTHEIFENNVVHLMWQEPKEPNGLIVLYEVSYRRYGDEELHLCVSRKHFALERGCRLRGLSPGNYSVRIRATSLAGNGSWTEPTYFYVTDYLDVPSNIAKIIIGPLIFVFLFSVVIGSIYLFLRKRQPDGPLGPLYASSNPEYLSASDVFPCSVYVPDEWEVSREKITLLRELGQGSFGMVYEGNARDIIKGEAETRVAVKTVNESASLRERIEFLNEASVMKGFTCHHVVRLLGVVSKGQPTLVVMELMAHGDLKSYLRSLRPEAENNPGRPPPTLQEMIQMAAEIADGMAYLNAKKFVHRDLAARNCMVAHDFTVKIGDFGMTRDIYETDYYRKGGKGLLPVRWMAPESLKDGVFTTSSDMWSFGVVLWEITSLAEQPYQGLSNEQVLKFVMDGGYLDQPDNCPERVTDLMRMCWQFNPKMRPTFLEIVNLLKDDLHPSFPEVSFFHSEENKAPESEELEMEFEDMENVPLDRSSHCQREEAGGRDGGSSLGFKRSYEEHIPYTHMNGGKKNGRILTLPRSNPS

[10] = target: panel of more than 300 wild-type and mutant kinases (313 kinase panel) (Homo sapiens, UniProt P51451)
Chain of panel of more than 300 wild-type and mutant kinases (313 kinase panel) (Homo sapiens, UniProt P51451) (P51451 whole entry, change not shown): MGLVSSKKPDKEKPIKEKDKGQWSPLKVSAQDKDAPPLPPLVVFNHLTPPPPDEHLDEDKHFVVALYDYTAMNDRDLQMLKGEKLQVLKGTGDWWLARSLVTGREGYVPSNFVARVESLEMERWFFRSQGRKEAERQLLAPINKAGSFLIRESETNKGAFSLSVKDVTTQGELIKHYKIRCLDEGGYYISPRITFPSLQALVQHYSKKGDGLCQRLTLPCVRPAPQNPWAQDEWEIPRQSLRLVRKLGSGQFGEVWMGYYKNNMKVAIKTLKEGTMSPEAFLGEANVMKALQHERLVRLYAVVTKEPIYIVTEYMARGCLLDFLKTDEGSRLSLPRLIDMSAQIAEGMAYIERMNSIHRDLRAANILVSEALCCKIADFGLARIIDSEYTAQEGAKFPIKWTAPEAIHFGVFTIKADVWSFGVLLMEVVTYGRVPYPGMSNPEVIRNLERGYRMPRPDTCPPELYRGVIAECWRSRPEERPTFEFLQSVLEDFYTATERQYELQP

| SMILES | %-inhibition of ROCK2 ([1]; kinase ROCK2, 1 μM) [%] | %-inhibition, BMPR1A ([2]; kinase BMPR1A, 1 μM compound) [%] | %-inhibition of SIK ([3]; kinase SIK, 1 μM) [%] | %-inhibition of MLK1 ([4]; kinase MLK1, 1 μM) [%] | %-inhibition, CaMK1α ([5]; kinase CaMK1α, 1 μM compound) [%] | %-inhibition of PDHK4 ([6]; kinase PDHK4, 1 μM) [%] | %-inhibition of HIPK4 ([7]; kinase HIPK4, compound at 1 μM) [%] | %-inhibition of NEK1 ([8]; kinase NEK1, 1 μM) [%] | %-inhibition of INSR ([9]; kinase INSR, compound at 1 μM) [%] | %-inhibition, BLK ([10]; kinase BLK, 1 μM compound) [%] | %-inhibition of ROCK2 ([1]; 1 µM) [%] | %-inhibition of INSR ([9]; 1 µM) [%] | %-inhibition, BMPR1A [2] [%] | %-inhibition, BLK ([10]; 1 µM) [%] | %-inhibition of SIK ([3]; 1 µM) [%] | %-inhibition of MLK1 ([4]; 1 µM) [%] | %-inhibition, CaMK1α ([5]; 1 µM) [%] | %-inhibition of PDHK4 ([6]; 1 µM) [%] | %-inhibition of HIPK4 ([7]; 1 µM) [%] | %-inhibition of NEK1 ([8]; 1 µM) [%] |
| --- | --- | --- | --- | --- | --- | --- | --- | --- | --- | --- | --- | --- | --- | --- | --- | --- | --- | --- | --- | --- |
| C[C@@H](Oc1cc(-c2cnn(C3CCNCC3)c2)cnc1N)c1c(Cl)ccc(F)c1Cl [crizotinib] | 4.25 | 41 | 26 | 2.82 | 0.734 | -3.76 | 31 | 2.24 |  |  |  |  |  |  |  |  |  |  |  |  |
| CC(C)(C)c1nc(-c2cccc(NS(=O)(=O)c3c(F)cccc3F)c2F)c(-c2ccnc(N)n2)s1 [dabrafenib] | 14 | 17 | 100 |  |  | -1 | 92 | 24 | 7.51 | 80 |  |  |  |  |  |  |  |  |  |  |
| COc1cc2c(Nc3ccc(Br)cc3F)ncnc2cc1OCC1CCN(C)CC1 [vandetanib] | -0.708 | 46 | 70 | 42 | -3 | -1.83 | 20 | -8 | 3.63 | 89 |  |  |  |  |  |  |  |  |  |  |
| O=S(=O)(c1cccc2cnccc12)N1CCCNCC1 [fasudil] |  | -10 | -0.948 | 3.31 | -5.45 | 4.74 | -0.779 | -6.36 | -11 | -2.48 |  |  |  |  |  |  |  |  |  |  |
| C#Cc1cccc(Nc2ncnc3cc(OCCOC)c(OCCOC)cc23)c1 [erlotinib] |  |  |  |  |  |  |  |  |  |  | 4.44 | 4 | 12 | 31 | 8 | 14 | 2.51 | -9 | 37 | 5 |
| COc1cc2nccc(Oc3ccc(NC(=O)C4(C(=O)Nc5ccc(F)cc5)CC4)cc3)c2cc1OC [cabozantinib] | 15 | 2.27 | 6 | 20 | -0.897 | 3.76 |  | -4.23 | 35 | 100 |  |  |  |  |  |  |  |  |  |  |
| Cc1ccc(C(=O)Nc2ccc(CN3CCN(C)CC3)c(C(F)(F)F)c2)cc1C#Cc1cnc2cccnn12 [ponatinib] | 63 | 6.48 | 96 | 29 |  | -1.4 | 96 | 78 | 43 | 97 |  |  |  |  |  |  |  |  |  |  |
| CCCS(=O)(=O)Nc1ccc(F)c(C(=O)c2c[nH]c3ncc(-c4ccc(Cl)cc4)cc23)c1F [vemurafenib] | -0.177 | 9 | 24 | 10 | -3.18 | -1.4 | -0.437 | -2.74 | 17 | 52 |  |  |  |  |  |  |  |  |  |  |
| CCN(CC)CCNC(=O)c1c(C)[nH]c(/C=C2\C(=O)Nc3ccc(F)cc32)c1C [sunitinib] |  |  |  |  |  |  |  |  |  | 96 |  |  |  |  |  |  |  |  |  |  |
| Cc1cn(-c2cc(NC(=O)c3ccc(C)c(Nc4nccc(-c5cccnc5)n4)c3)cc(C(F)(F)F)c2)cn1 [nilotinib] | -27 | -22 | -25 | -12 | -15 | -4.31 | 37 | -23 | -8 | 29 |  |  |  |  |  |  |  |  |  |  |
| CS(=O)(=O)CCNCc1ccc(-c2ccc3ncnc(Nc4ccc(OCc5cccc(F)c5)c(Cl)c4)c3c2)o1 [lapatinib] |  |  | -7 | 7 | 8 | -4.31 | 9 |  | -1.26 | 24 | -2 |  | 7.37 |  |  |  |  |  |  | 1.5 |
| Cc1nc(Nc2ncc(C(=O)Nc3c(C)cccc3Cl)s2)cc(N2CCN(CCO)CC2)n1 [dasatinib] |  |  |  |  | 1.38 |  |  |  |  | 103 |  |  |  |  |  |  |  |  |  |  |
| N#CC[C@H](C1CCCC1)n1cc(-c2ncnc3[nH]ccc23)cn1 [ruxolitinib] | 87 | 5.7 | 22 | 53 |  | -6 |  | -4 | 0.837 | -1 |  |  |  |  |  |  |  |  | 3 |  |
| COc1cc(Nc2c(C#N)cnc3cc(OCCCN4CCN(C)CC4)c(OC)cc23)c(Cl)cc1Cl [bosutinib] | 28 | 1.74 | 100 | 93 |  |  |  |  | 65 | 84 |  |  |  |  |  |  | 9 |  |  |  |
| CN(C)C/C=C/C(=O)Nc1cc2c(Nc3ccc(F)c(Cl)c3)ncnc2cc1O[C@H]1CCOC1 [afatinib] |  |  |  |  |  | -3.28 |  |  |  |  |  |  |  |  |  |  |  |  |  |  |
